Patent US5420282A, “Thiopyrano(2,3,4-c,d) indolyloxime ether alkylcarboxylates” (Abbott Laboratories, priority 1994, dated 1995)

System: calcium ionophore-induced LTB4 biosynthesis
Assay: Inhibition of calcium ionophore-induced LTB4 biosynthesis in human whole blood
Assay type: cell-based
Settings: human heparinized whole blood; 15 min preincubation at 37° C.; A23187 8.3 μM, 30 minutes; LTB4 by radioimmunoassay; read-out: IC50, inhibition of leukotriene biosynthesis in human whole blood
Description: Inhibition of leukotriene biosynthesis was evaluated in an assay, involving calcium ionophore-induced LTB4 biosynthesis expressed human whole blood. Human heparinized whole blood was proincubated with test compounds or vehicle for 15 min at 37° C. followed by calcium ionophore A23187 challenge (final concentration of 8.3 μM) and the reaction terminated after 30 minutes by adding two volumes of methanol containing prostaglandin B2 as an internal recovery standard. The methanol extract was analyzed for LTB4 using a commercially available radioimmunoassay.

Row | SMILES | IC50 [µM]
1 | CC1Cc2c(OCc3ccc4ccccc4n3)ccc3c2c(c(CC(C)(C)C=NOCC(=O)O)n3Cc2ccc(Cl)cc2)S1 (centres unmarked) [Example 1, 3-[1-(4-chlorobenzyl)-4-methyl-6-(quinolin-2-ylmethoxy]-4,5-dihydro-1H-thiopyrano[2,3,4-c,d]indol-2-yl]-2,2dimethylpropionaldehyde oxime-O-acetic acid] | 2.7
2 | CC1Cc2c(OCc3ccc(-c4ccccc4)cn3)ccc3c2c(c(CC(C)(C)C=NOCC(=O)O)n3Cc2ccc(Cl)cc2)S1 (centres unmarked) [Example 2, 3-[1-(4-chlorobenzyl)-4-methyl-6-(5-phenylpyridin-2-ylmethoxy]-4,5-dihydro-1H-thiopyrano[2,3,4-c,d]indol-2-yl]-2,2-dimethylpropionaldehyde oxime-O-acetic acid] | 0.4
